Assay [1] relates to P. aeruginosa DR4877/07. Nature of the assay: microbe, parasite or virus in culture. The note with it: for MIC: Pseudomonas aeruginosa, DR4877/07, 24 h, read-out: MIC of antibiotics. As to the method: MIC of each peptide was determined using the microdilution method in a 96 well microtitre plates (SPL Life Sciences Co., Ltd, Korea). Two-fold serial dilutions of each peptide in Mueller-Hinton Broth (MHB) was prepared from a 1 mg/ml stock solution of the peptide in the same broth, to obtain a final concentration in the range of 0.0976–50 μg/ml in each well. Bacterial suspensions (P. aeruginosa ATCC 27853, P. aeruginosa 4877, P. aeruginosa 23155, K. pneumoniae ATCC 10031 and K. pneumoniae 4299) were prepared by suspending the overnight cultured bacteria in saline and adjusting the inoculum to ~10^8 colony forming units (CFU) per ml. A further 150-fold dilution was then prepared in MHB to achieve a final cell density of 10^5–10^6 CFU/ml. In each well, 100 μl of inoculum was mixed with the equal volume of peptides at their 2× concentration. Positive and negative controls contained 200 μl of inoculum (without any peptide) and broth alone (no peptide/inoculum) respectively. Another negative control in which MHB containing 200 μl of peptide alone in its highest concentration tested (50 μg/ml) was also included to ensure that the optical density measured in the test wells was not due to turbidity of the peptides in solution. The 96 well polystyrene plates were then incubated at 37 °C for 24 h and the optical density at 600 nm (OD600) was measured every 30 min continuously using a TECAN microplate reader (TECAN Infinite 200, Austria).

Assay [2] has as its system P. aeruginosa DR4877/07. It is filed as cell-based. As to conditions: for FICI of B2088-antibiotic combination: lowest FICI reported, two independent duplicates. As to the method: The synergism between peptides with conventional antibiotics was evaluated using checkerboard assays. For a comparison polymyxin B (PMB) was also tested against each antibiotic. From their stock solutions, two-fold dilutions of each antibiotic and peptide to 1× MIC were prepared in MHB. 50 μl of each peptide concentration was added into the wells of a 96-well polystyrene plates (SPL Life Sciences Co. Ltd, Korea) in a horizontal orientation and the same volume of each antibiotic concentration were then added in a vertical orientation. Bacterial suspensions were prepared in MHB to yield final cell density of ~10^6 CFU/ml and 100 μl of bacterial suspension was mixed with each peptide-antibiotic combinations. This procedure was repeated for wells containing 200 μl of peptide alone and 200 μl of antibiotic alone in various concentrations. The positive and negative controls contained 200 μl of inoculum and MHB alone respectively. The plates were incubated at 37 °C for 24 hours and the optical density at 600 nm (OD600) was monitored as before. Fractional inhibitory concentration index (FICI) for all antibiotic- peptide combinations was calculated through the summation of (MIC of peptide in the combination/ MIC of peptide alone) and (MIC of antibiotics in combination/MIC of antibiotic alone). The experiments were performed in two independent duplicates and the combinations that gave the lowest FICI values was reported.

For assay [3], the system named is LPS (E. coli serotype 055:B5). Nature of the assay: BODIPY TR cadaverine (BC) displacement assay with LPS. Format: binding. An excerpt: To investigate the interaction of B2088 with LPS, we performed the BODIPY TR cadaverine (BC) displacement assay reported by Wood et al.[22]. The probe binds to the lipid A part of the LPS with moderate affinity and can be displaced by putative LPS-binding molecules. The method was used to probe the affinity of polycationic molecules and LPS binding proteins. First, we determined the affinity of polymyxin B (PMB), a lipopeptide cyclic antibiotic which has a high affinity for LPS. […] Figure 1a,b show the concentration-dependent displacement of LPS/lipid A-bound BC upon addition of B2088. […] To confirm the importance of branching, we determined the BC50 for a linear retrodimer having the amino acid sequence, […] (Fig. 1d). The determined value was 2-fold higher (3.9 ± 0.1 μM) than that of B2088, confirming a weaker affinity of the linear peptide.
The BC displacement assay was used to determine the ability of each peptide to bind to LPS. The florescent probe, BODIPY TR cadaverine (BC) was purchased from Molecular Probes/ Invitrogen (USA). A stock solution containing 1 mg/ml of LPS (E. coli serotype 055:B5) was prepared in dimethyl sulfoxide (DMSO) and another stock solution containing 1 mg/ml of BC dye was prepared in 5 mM HEPES buffer (pH 7.4). The optimum saturation concentration of BC:LPS ratio was standardized following the protocol provided by Wood et al. (22). From the BC stock, 240 μl was mixed with 500 μl from the LPS stock solution in 5 mM HEPES buffer (pH 7.4) to prepare 20 ml of BC:LPS mixture. Two-fold serial dilutions of each peptide in 5 mM HEPES buffer (pH 7.4) was prepared from their 1 mg/ml stock solutions to obtain a final range of 0.02–25.6 μM. The BC:LPS mixture was added to 100 μl of each peptide congener in a 1:1 ratio in each well of a 96-well black Costar™ polystyrene microtitre plate (Corning Incorporated, NY, USA). The maximum fluorescence intensity (Fmax) was determined using a mixture containing 100 μl PMB (50 μg/ml) and 100 μl BC:LPS solution, as PMB is considered the ‘gold standard’ for LPS-sequestering agents. The minimum fluorescence intensity (F0) was measured using 200 μl of BC:LPS mixture to determine the background noise for this experiment. Fluorescence measurements for each peptide (F) were determined using a microplate reader (Model: TECAN Infinite 200, Austria) with excitation and emission wavelengths set at 580 nm and 620 nm respectively. The percentage of BC displacement was then calculated using the formula: […]
The experiments were performed in duplicates and the effective concentration required for 50% displacement of BC dye (ED50) from LPS with respect to PMB was determined by curve fitting using Graphpad Prism (CA, USA). A higher ED50 value for the peptide indicates a lower affinity for LPS.

Setting [4] is: MIC of B2088 6.25 μg/ml, MHB, ~10^6 CFU/ml, 37 °C, 24 h.

In the case of `O=C(O)c1cn(C2CC2)c2cc(N3CCNCC3)c(F)cc2c1=O` [Ciprofloxacin], the MIC with P. aeruginosa DR4877/07 [1] was determined as 12.5 µg/mL.

Take `CC[C@H]1OC(=O)[C@H](C)[C@@H](O[C@H]2C[C@@](C)(OC)[C@@H](O)[C@H](C)O2)[C@H](C)[C@@H](O[C@@H]2O[C@H](C)C[C@H](N(C)C)[C@H]2O)[C@](C)(O)C[C@@H](C)C(=O)[C@H](C)[C@@H](O)[C@]1(C)O` [Erythromycin, reference compound]: in the assay with P. aeruginosa DR4877/07 [2] (setting [4]), the “MIC of antibiotics in the presence of ½× sub-MIC of B2088” value (shortened to “MIC … of ½× sub-MIC of B2088”) was determined as 50 µg/mL. For the same compound, in the assay on P. aeruginosa DR4877/07 [2], the “FICI of B2088-antibiotic combination” value was 1.0. The MIC in the assay on P. aeruginosa DR4877/07 [1] was determined as 100 µg/mL.

Consider `C[C@@H](O)[C@H]1C(=O)N2C(C(=O)O)=C(SCCN=CN)C[C@H]12` [Imipenem, reference compound], for which, in the assay with P. aeruginosa DR4877/07 [2] (setting [4]), the “MIC of antibiotics in the presence of ¼× sub-MIC of B2088” value (from here on “MIC … of ¼× sub-MIC of B2088”) stood at 0.195 µg/mL and the “MIC … of ½× sub-MIC of B2088” value came out at 0.0975 µg/mL. In addition, in the assay on P. aeruginosa DR4877/07 [1], the MIC is 0.78 µg/mL.

Regarding `NC[C@H]1O[C@H](O[C@H]2[C@H](O)[C@@H](O[C@H]3O[C@H](CO)[C@@H](O)[C@H](N)[C@H]3O)[C@H](N)C[C@@H]2N)[C@H](O)[C@@H](O)[C@@H]1O` [Kanamycin, reference compound], in the assay with P. aeruginosa DR4877/07 [2] (setting [4]), the “MIC … of ¼× sub-MIC of B2088” value is 1600 µg/mL and the “MIC … of ½× sub-MIC of B2088” value amounted to 800 µg/mL. Besides, the “FICI of B2088-antibiotic combination” value in the assay with P. aeruginosa DR4877/07 [2] came out at 0.75. In the assay with P. aeruginosa DR4877/07 [2] (multidrug resistant P. aeruginosa 4877), the “Fold decrease in the MIC of antibiotics at sub-lethal/sub-inhibitory concentrations of B2088” value is 4 fold. Further, the MIC of antibiotics with P. aeruginosa DR4877/07 [1] (antibiotic alone, MHB, 37 °C, 24 h, OD600) came out at 3200 µg/mL.

Turning to `C[C@H]1COc2c(N3CCN(C)CC3)c(F)cc3c(=O)c(C(=O)O)cn1c23` [Levofloxacin, reference compound], the “MIC … of ½× sub-MIC of B2088” value in the assay on P. aeruginosa DR4877/07 [2] (setting [4]) was 12.5 µg/mL. In addition, the “FICI of B2088-antibiotic combination” value with P. aeruginosa DR4877/07 [2] was 0.75. In the assay on P. aeruginosa DR4877/07 [1], the MIC was determined as 50 µg/mL.

On to `CCn1cc(C(=O)O)c(=O)c2ccc(C)nc21` [Nalidixic acid, reference compound], for which, in the assay on P. aeruginosa DR4877/07 [2], the “FICI of polymyxin B-antibiotic combination” value came out at 1.0 and the “FICI of B2088-antibiotic combination” value came to 0.63. The “MIC … of ½× sub-MIC of B2088” value in the assay with P. aeruginosa DR4877/07 [2] (setting [4]) came to 400 µg/mL. For the same compound, the MIC in the assay with P. aeruginosa DR4877/07 [1] was 3200 µg/mL.

Turning to `[H]/N=C(/N)N[C@H]1[C@H](O)[C@@H](O)[C@H](O[C@@H]2O[C@@H](C)[C@](O)(C=O)[C@H]2O[C@@H]2O[C@@H](CO)[C@H](O)[C@@H](O)[C@@H]2NC)[C@@H](N/C(N)=N\[H])[C@@H]1O` [Streptomycin, reference compound], in the assay on P. aeruginosa DR4877/07 [2] (setting [4]), the “MIC … of ¼× sub-MIC of B2088” value came out at 100 µg/mL, the “MIC … of ½× sub-MIC of B2088” value amounted to 50 µg/mL and the “MIC of antibiotics in the presence of ⅛× sub-MIC of B2088” value is 100 µg/mL. In the assay on P. aeruginosa DR4877/07 [2], the “FICI of B2088-antibiotic combination” value is 0.75. The MIC with P. aeruginosa DR4877/07 [1] was 200 µg/mL.

As to RGRKVVRRKKRRVVKRGR [linear retrodimer], in the assay with P. aeruginosa DR4877/07 [2] (additive effect), the FICI with chloramphenicol worked out at 1, the FICI with gatifloxacin stood at 1 and the FICI with tobramycin is 1. Also, the “ED50 (50% displacement of BC dye from LPS; also called BC50)” value in assay [3] (5 mM HEPES pH 7.4, fluorescence ex 580/em 620 nm, with respect to PMB, duplicates) was determined as 3.9 ± 0.1 µM. The “BC50 fold higher than that of B2088” value in assay [3] (LPS-bound BC) came to 2 fold.

For the origin of these results see PMC4865820, “Branched Peptide, B2088, Disrupts the Supramolecular Organization of Lipopolysaccharides and Sensitizes the Gram-negative Bacteria” (Scientific Reports, 2016).
